Assay results published in patent US20230406906A1, “SERPIN PEPTIDES AND METHODS OF USING THE SAME” (SERPIN PHARMA, LLC, priority 2022, published 2023).

Columns and labels:
LRP1 = molecular target: T1, LRP1 (Rattus norvegicus, UniProt G3V928); assay: Cell signaling analysis in PC12 cells (phospho-ERK1/2, phospho-Akt immunoblot); format: cell-based
T1 construct: host or cells: rat PC12 cells
Experimental: Cell signaling analysis: Rat PC12 cells were purchased from ATCC (CRL-1721). PC12 cells were maintained in high glucose DMEM (Gibco, USA) containing 10% heat-inactivated FBS (Gibco, USA), 5% HyClone heat-inactivated horse serum (Cytiva, USA), penicillin (100 units/ml) and streptomycin ([…]) in 6-well plates that were pre-coated with 0.01 mg/ml type IV collagen (Sigma-Aldrich, St. Louis, MO, USA). Cells were transferred to serum-free medium (SFM) 4 h prior to adding effectors, and then treated with SP163M (2.4, 24 or 240 nM); EI-tPA (12 nM), NGF (0.36 nM), or vehicle (PBS) for 10 min. In some cases, cells were pre-incubated with the competitive antagonist of LRP1, GST-RAP (150 nM) for 15 min or electroporated using the Rat Neuron Nucleofector Amaxa Kit (Lonza Biosciences) and incubated with siRNA to silence LRP1 expression (siLRP1; M-094191-01-0010, Dharmacon) for 48 h. Control cells were transfected with non-targeting control (NTC) siRNA (NTC; D-001810-10-05, Dharmacon). Cells were rinsed with ice-cold PBS and proteins were extracted in RIPA buffer (20 mM sodium phosphate, 150 mM NaCl, pH 7.4, 1% Triton X-100, 0.5% sodium deoxycholate, 0.1% SDS) supplemented with protease and phosphatase inhibitors (Roche Diagnostics, USA). After 30 min on ice, lysates were centrifuged at 15000×g for 5 min, supernatant collected and stored at −20° C. Equal amounts of protein from cell lysates (20 μg), as determined by BCA Protein Assay (ThermoFisher Scientific, Waltham, MA, USA), were subjected to 10% SDS-PAGE and electro-transferred to nitrocellulose membranes. The membranes were blocked with 5% nonfat dried milk and then incubated with primary anti-phospho-AKT (Cell Signaling Technology, Danvers, MA, USA; cat #9271S; 1:1000), anti-phospho-ERK1/2 (Cell Signaling Technology, Danvers, MA, USA; cat #9101S; 1:1000), anti-LRP1 (Cell Signaling Technology, Danvers, MA, USA; cat #64099S; 1:1000) or anti total-ERK1/2 (Cell Signaling Technology, Danvers, MA, USA; cat #91012S; 1:1000). Immunoblots were developed using Radiance, Radiance Q, and Radiance Plus chemiluminescent substrates and imaged using a BioRad ChemiDoc Imaging System (Bio-Rad, Hercules, CA, USA).

STAT6 = assay: IL-13 stimulated STAT6 phosphorylation in esophageal EPC2 cells (western blot); format: cell-based, Human; details: 30 minutes post IL-13 induction
Experimental: Esophageal EPC2 cells were treated with vehicle (ddw), A1AT or SP163M. Cells were collected at time-points indicated and western blot analysis of phospho-specific STAT6 was analyzed. […] Using CRISPER/CAS9 technology, an LRP1 knockout esophageal EPC2 cell line was created.

C57BL/6J mice = assay: Intraplantar capsaicin model of acute nociception; format: in vivo; details: male mice, 2 μg/g 1 h before capsaicin, 10 min
Experimental: For the capsaicin studies, male (n=41) and female (n=37) mice were acclimated to the behavior testing facility for at least 1 h. Capsaicin was dissolved in 20% (2-hydroxypropyl)-β-cyclodextrin (Sigma-Aldrich, St. Louis, MO, USA) solution. […] Subsequently, 10 μl of 2 μg/μl capsaicin solution was injected into the plantar area of left hind paw. Immediately after capsaicin injection, mice were placed in a plexiglass box. Two observers, blinded to treatments, recorded the time spent licking and flinching the left hind paw over 10 min.

NFκB [1] = assay: NFκB reporter assay (THP1-XBlue-MD2-CD14 cells, LPS, SEAP read-out); format: cell-based; details: peptide 50 μg/ml before LPS 5 ng/ml, overnight
Experimental: The reporter cells (THP1-XBlue-MD2-CD14 cells) were treated with each peptide (50 μg/ml) before being insulted with LPS (5 ng/ml) and incubated overnight. The NFκB inducible Secreted Embryonic Alkaline Phosphatase (SEAP) was measured in the supernatant and read for absorbance.

[2] = molecular target: LRP1 (low-density lipoprotein receptor-related protein 1) on rat PC12 cells (rat) (UniProt G3V928); assay: cell-based or functional assay
mice [3] = assay: MC903 AD-like inflammatory skin model, topical treatment (dermatitis score, ear volume, scratching); format: in vivo
Experimental: SP16 (in 70% ethanol) was applied topically to the ears on the days of the MC903 applications (MC903+SP16). Drug vehicle (70% EtOH) was applied to control animals (MC903) and normal control animals (NC) received EtOH in place of MC903. In-life parameters: Dermatitis score (FIG. 16A) and ear volume (FIG. 16B) measured on days 0, 3, 7, 9, 11 and 14. […] Clinical Dermatitis Score (score 0-4 for each parameter)—erythema, scale/dryness, edema, excoriation/erosion (total score 0-16).
(§1) Mice were treated with SP16 in 70% EtOH (MC903+SP16) or drug vehicle (MC903). Normal control (NC) mice were treated with EtOH only. Ears were measured for PAR2 protein expression through western blot analysis (quantitative analysis after normalization to beta-actin shown) (n=3-5). TSLP was measured in both the ears and serum by ELISA (N=3-5). Scratching was assessed over a 3 minute period after a 5-minute acclimatization period and the number of scratches are shown (n=3). IL-4 was measured in ear lysate via ELISA (N=3-5).

TSLP [4] = assay: MC903 AD model, TSLP in ears and serum by ELISA; format: in vivo; details: topical, vs MC903 treated mice
Experimental: as §1

IL-4 = assay: MC903 AD model, IL-4 in ear lysate via ELISA; format: in vivo, mice; details: topical
Experimental: as §1

PAR2 = assay: MC903 AD model, PAR2 protein expression in ears (western blot); format: in vivo, mice; details: topical, normalized to beta-actin
Experimental: as §1

TSLP [5] = assay: Poly I:C-induced TSLP production by SPINK7 knockout EPC2 cells (ELISA); format: cell-based, Human; details: SPINK7 knockout esophageal cells, Poly I:C 5 μg/ml, 8 hours
Experimental: FIG. 12A: Poly I:C-induced TSLP production by SPINK7 knockout EPC2 cells (Human esophageal epithelial cells). SPINK7 KO cells and control cells were plated in high calcium and high density, for 48 hours before being treated with SP16 or 7G and Poly I:C (5 μg/ml, or untreated) for 8 hours. TSLP production in the supernatant was measured by ELISA. FIG. 12B: primary esophageal epithelial cells (EPC2) were treated with SP16 and then stimulated with IL-13, a TH2 response mediated cytokine, to induce CCL26.
SP16 reduces several key cytokines involved in allergic responses. Upon knockout of SPINK7, esophageal epithelial cells release exacerbated levels of TSLP. TSLP is a key mediator of immune cell responses upon activation to an insult such as allergens.

CCL26 = CCL26 release by esophageal epithelial cells (EPC2); format: cell-based, Human
CCL24 = assay: OVA-challenge allergic inflammation model, BALF CCL24 via ELISA; format: in vivo; details: treated during OVA challenge phase, sensitized mice
Experimental: (§2) Mice were subjected to the OVA-challenge allergic inflammation model and treated with vehicle or SP16 during the challenge phase. The bronchoalveolar lavage fluid (BALF) was analyzed for cytokines via ELISA.

IL-1a = assay: OVA-challenge allergic inflammation model, BALF IL-1a via ELISA; format: in vivo; details: treated during OVA challenge phase, sensitized mice
Experimental: as §2

IL-2 = assay: OVA-challenge allergic inflammation model, BALF IL-2 via ELISA; format: in vivo; details: treated during OVA challenge phase, sensitized mice
Experimental: as §2

mice [6] = assay: OVA-induced allergic inflammation model, eosinophils in BALF by flow cytometry; format: in vivo
Experimental: FIG. 15A: mice were subjected to the OVA-challenge allergic inflammation model and treated with vehicle, SP16, or A1AT during the challenge phase. The BALF was collected and analyzed for the percent of eosinophils and compared to saline (non-challenged) mice, vehicle OVA induced mice, or SP16 treated OVA induced mice.
The impact of SP16 treatment on eosinophilic infiltration in mice was assessed using the OVA-induced allergic inflammation model. The number of eosinophils in the bronchoalveolar lavage fluid was quantified by flow cytometry.

NFκB [7] = assay: NFκB reporter assay (THP1-XBlue-MD2-CD14 cells, LPS, SEAP read-out); format: cell-based; details: without LPS

T1 sequence (G3V928 20-3944 limits assumed): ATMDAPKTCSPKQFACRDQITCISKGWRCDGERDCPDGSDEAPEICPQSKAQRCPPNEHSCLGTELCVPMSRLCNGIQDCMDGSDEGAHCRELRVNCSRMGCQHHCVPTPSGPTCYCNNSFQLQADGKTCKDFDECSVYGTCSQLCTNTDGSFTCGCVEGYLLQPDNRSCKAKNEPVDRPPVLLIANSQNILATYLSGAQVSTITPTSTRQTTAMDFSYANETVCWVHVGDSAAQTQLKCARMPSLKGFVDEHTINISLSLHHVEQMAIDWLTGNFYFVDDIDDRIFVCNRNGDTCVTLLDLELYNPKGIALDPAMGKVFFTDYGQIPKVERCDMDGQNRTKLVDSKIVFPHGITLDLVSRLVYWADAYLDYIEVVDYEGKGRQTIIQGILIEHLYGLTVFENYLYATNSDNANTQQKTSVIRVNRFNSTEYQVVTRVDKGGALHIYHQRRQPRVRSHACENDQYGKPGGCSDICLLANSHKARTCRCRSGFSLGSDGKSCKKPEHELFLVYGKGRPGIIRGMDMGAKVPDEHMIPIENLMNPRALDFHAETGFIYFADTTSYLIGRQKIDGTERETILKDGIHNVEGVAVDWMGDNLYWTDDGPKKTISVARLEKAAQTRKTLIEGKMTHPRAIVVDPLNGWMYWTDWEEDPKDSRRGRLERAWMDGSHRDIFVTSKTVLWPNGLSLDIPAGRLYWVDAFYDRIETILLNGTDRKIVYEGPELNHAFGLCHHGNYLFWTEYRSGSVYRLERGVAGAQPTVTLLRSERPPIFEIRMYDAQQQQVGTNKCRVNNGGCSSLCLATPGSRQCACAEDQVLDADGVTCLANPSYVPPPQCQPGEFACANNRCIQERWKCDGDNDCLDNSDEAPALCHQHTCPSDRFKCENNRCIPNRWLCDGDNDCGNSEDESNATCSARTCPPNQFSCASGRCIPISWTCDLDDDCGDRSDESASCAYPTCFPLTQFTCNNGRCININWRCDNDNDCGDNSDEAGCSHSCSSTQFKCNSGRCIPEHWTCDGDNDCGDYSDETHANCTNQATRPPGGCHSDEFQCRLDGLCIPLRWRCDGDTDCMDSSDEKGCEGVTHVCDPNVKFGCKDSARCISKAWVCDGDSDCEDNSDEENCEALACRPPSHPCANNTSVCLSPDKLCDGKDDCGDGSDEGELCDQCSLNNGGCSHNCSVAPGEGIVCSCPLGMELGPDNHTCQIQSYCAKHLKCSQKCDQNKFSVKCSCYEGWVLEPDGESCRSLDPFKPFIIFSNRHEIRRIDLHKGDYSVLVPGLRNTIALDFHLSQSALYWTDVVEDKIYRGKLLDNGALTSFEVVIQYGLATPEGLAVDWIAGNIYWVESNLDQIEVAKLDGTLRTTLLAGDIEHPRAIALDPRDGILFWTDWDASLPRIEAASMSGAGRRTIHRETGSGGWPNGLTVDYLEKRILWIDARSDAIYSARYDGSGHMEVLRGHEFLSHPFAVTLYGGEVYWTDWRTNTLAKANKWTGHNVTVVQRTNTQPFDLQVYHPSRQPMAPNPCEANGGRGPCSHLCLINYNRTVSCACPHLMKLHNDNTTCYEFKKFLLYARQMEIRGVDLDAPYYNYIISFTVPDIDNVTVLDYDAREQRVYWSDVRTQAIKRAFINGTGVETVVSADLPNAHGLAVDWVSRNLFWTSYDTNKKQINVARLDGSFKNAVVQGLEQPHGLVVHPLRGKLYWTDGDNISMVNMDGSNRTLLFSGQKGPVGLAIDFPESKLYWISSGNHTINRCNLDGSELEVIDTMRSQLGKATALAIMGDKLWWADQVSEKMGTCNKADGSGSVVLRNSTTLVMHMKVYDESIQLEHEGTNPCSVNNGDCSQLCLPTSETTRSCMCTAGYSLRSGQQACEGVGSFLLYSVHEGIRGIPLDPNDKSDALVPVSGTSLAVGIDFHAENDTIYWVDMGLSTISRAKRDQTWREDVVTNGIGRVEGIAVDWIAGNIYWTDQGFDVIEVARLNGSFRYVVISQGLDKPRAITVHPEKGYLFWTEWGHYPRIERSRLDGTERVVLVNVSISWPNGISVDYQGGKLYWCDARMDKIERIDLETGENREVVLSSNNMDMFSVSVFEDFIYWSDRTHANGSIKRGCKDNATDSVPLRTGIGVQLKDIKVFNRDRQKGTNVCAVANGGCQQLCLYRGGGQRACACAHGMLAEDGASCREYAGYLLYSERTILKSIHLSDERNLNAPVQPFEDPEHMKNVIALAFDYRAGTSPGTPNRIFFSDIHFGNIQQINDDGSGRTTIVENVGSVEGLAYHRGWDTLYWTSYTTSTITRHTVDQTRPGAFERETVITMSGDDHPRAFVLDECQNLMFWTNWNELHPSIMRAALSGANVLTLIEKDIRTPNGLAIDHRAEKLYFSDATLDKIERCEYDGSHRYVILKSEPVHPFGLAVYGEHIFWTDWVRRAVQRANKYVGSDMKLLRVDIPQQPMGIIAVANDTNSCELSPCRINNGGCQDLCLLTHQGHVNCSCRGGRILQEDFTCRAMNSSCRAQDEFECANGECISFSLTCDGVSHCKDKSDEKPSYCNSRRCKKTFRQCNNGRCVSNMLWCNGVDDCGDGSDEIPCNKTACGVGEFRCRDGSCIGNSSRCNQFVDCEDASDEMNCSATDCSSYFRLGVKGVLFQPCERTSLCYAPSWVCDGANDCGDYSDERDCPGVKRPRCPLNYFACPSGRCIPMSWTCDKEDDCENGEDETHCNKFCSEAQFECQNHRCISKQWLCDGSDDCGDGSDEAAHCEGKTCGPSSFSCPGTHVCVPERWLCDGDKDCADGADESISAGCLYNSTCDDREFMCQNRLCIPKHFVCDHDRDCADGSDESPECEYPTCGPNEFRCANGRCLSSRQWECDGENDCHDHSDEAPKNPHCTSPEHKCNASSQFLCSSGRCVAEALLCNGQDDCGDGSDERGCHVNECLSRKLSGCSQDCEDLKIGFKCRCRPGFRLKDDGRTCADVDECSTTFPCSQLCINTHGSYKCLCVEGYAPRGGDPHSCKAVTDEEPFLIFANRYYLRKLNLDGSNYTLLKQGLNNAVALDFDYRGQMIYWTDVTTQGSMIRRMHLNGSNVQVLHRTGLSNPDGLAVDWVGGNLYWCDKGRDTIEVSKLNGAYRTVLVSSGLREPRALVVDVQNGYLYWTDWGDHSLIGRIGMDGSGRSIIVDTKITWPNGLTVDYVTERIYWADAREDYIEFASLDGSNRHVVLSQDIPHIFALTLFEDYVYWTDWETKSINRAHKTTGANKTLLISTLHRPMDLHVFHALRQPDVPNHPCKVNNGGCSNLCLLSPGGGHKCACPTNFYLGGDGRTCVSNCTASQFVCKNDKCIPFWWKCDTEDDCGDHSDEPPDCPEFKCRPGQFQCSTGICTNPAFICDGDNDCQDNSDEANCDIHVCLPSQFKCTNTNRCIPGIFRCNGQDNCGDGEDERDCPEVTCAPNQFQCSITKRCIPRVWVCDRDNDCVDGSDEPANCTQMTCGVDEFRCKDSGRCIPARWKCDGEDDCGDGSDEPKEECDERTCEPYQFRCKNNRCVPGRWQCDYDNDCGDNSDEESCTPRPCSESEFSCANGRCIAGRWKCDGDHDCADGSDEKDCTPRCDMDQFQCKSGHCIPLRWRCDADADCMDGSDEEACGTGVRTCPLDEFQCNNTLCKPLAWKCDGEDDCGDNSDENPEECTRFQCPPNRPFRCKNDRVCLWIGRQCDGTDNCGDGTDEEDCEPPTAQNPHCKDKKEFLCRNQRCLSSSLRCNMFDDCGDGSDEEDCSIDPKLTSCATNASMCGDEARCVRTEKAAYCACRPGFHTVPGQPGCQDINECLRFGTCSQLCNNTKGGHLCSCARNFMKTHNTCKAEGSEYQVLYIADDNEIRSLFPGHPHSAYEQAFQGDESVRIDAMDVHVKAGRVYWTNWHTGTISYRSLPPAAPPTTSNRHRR
T1 sequence (G3V928 3945-4545 partner limits assumed): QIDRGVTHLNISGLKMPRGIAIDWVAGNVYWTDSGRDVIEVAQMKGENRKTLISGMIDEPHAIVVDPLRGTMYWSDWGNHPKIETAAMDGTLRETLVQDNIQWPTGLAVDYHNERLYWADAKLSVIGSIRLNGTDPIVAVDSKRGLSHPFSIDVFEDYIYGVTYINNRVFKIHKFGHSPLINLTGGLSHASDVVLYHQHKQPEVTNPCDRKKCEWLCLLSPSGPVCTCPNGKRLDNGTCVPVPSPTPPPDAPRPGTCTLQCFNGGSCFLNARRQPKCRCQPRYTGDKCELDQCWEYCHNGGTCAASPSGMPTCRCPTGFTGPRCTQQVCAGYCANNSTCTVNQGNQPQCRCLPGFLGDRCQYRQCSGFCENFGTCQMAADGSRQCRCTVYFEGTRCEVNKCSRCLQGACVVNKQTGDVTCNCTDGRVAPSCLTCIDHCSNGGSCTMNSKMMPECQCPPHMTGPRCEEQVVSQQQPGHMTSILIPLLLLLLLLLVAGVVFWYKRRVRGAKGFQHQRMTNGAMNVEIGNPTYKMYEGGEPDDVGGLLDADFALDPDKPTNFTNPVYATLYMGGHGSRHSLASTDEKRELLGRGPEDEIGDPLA

Q: For “NGF: NGF-β purchased from Sigma, cell signaling control [reference compound]”, which “activation of ERK1/2 (cell signaling control)” value (LRP1; 0.36 nM, 10 min) is on record?
A: also activated ERK1/2

Q: For “A1AT: alpha-1 antitrypsin, the prototypical SERPIN”, which STAT6 phosphorylation (STAT6) is on record?
A: STAT6 was phosphorylated in vehicle and A1AT treated cells

Q: How did the “activation of ERK1/2 in cells transfected with LRP1-specific siRNA” value (LRP1; 48 h after transfection) turn out when “EI-tPA: Recombinant human EI-tPA, derivative of tissue-type plasminogen activator, known LRP1 agonist [reference compound]” was run?
A: ERK1/2 was not activated

Q: What about the “activation of ERK1/2 in cells transfected with NTC siRNA” value (LRP1; 48 h after transfection) of the same substance?
A: also robustly activated ERK1/2

Q: What about the “capsaicin induced acute pain-related behavior (time spent licking)” value (C57BL/6J mice) of the same substance?
A: blocked the capsaicin induced acute pain-related behavior

Q: For “V K F N K P F V F L M (VKFNKPFVFLM) [SP20]”, which “NFκB activity (NFκB inducible SEAP in supernatant)” value (from here on “NFκB activity”) (NFκB [1]) is on record?
A: did not have an inhibitory effect

Q: How did the block of SP163M-induced phospho-Akt and phospho-ERK1/2 in PC12 cells (immunoblot); concentration of RAP used [2] turn out when “Receptor associated protein expressed as a glutathione-S-transferase fusion protein (GST-RAP)” was run?
A: 150 nM

Q: How did the “NFκB activity” value (NFκB [1]) turn out when “R R R V R F N R P F L R R R (RRRVRFNRPFLRRR) [SP32]” was run?
A: could not be restored with the poly arginine flanks

Q: How did the “NFκB activity” value (NFκB [1]) turn out when “V K F N K P F V F L M I E Q N T K (VKFNKPFVFLMIEQNTK; SP16 peptide core sequence including the LRP1 binding site; listed as Homo sapiens)” was run?
A: capable of reducing NFκB activity

Q: What about the “activation of ERK1/2 over time” value (LRP1; 240 nM, 0-30 min) of the same substance?
A: robustly activated ERK1/2 from 5 to 30 min

Q: And the “lowest concentration activating phospho-ERK1/2” value (LRP1; 10 min)?
A: 24 nM

Q: What about the “activation of ERK1/2 in cells transfected with NTC siRNA” value (LRP1; 48 h after transfection) of the same substance?
A: ERK1/2 was robustly activated

Q: What about the “disease improvement (dermatitis score, ear volume)” value (mice [3]; topical solution (1%) in 70% ethanol, 14-day period, vs vehicle) of the same substance?
A: a significant improvement in disease vs. vehicle-treated mice

Q: What about the “pruritis (number of scratches)” value (mice [3]; topical, vs vehicle (MC903) treated mice) of the same substance?
A: significantly reduces pruritis compared to vehicle (MC903) treated mice

Q: What about the “systemic (serum) and local (ear) TSLP” value (TSLP [4]) of the same substance?
A: a significant reduction in systemic (serum) and local (ear) TSLP compared to MC903 treated mice

Q: And the “IL-4 release in the skin tissue” value (IL-4)?
A: significantly reduced in SP16-treated animals

Q: What about the “PAR2 protein expression in ears” value (PAR2) of the same substance?
A: PAR2 and TSLP inhibition

Q: What about the “Poly I:C mediated TSLP release” value (TSLP [5]) of the same substance?
A: effective in significantly reducing Poly I:C mediated TSLP and CCL26 release

Q: And the CCL26 release (CCL26; EPC2 cells stimulated with IL-13)?
A: significantly reduced CCL26 release dose dependently

Q: What about the “Poly I:C mediated CCL26 release” value (CCL26; SPINK7 knockout esophageal cells) of the same substance?
A: effective in significantly reducing Poly I:C mediated TSLP and CCL26 release

Q: And the “CCL24 in BALF” value (CCL24)?
A: significantly reduces CCL24 following OVA-challenge in sensitized mice

Q: What about the “IL-1a in BALF” value (IL-1a) of the same substance?
A: significantly reduces IL-1a following OVA-challenge in sensitized mice

Q: What about the “IL-2 in BALF” value (IL-2) of the same substance?
A: significantly reduces IL-2 following OVA-challenge in sensitized mice

Q: And the “eosinophil infiltration into the lungs (BALF)” value (mice [6])?
A: significantly (p=0.04) reduces eosinophil infiltration into the lungs

Q: With “RRRVKFNKPFVFLMIEQNTKRRR (RRRVKFNKPFVFLMIEQNTKRRR) [SP21]” as the substance, how does the “NFκB activity” value (NFκB [1]) read?
A: NFkB inhibition increased as well relative to SP16

Q: For V R F N R P F L (VRFNRPFL) [SP31], which “NFκB activity” value (NFκB [1]) is on record?
A: the anti-inflammatory activity of the peptide was lost

Q: Which “NFκB activity” value (NFκB [1]) does the source give for “R R R V K F N K P F V F L M R R R (RRRVKFNKPFVFLMRRR) [SP22]” here?
A: the NFκB activity was significantly reduced

Q: What does the source list for “SIPPEVKFNKPFVFLMIEQNTKSPLFMGKVVNP (SIPPEVKFNKPFVFLMIEQNTKSPLFMGKVVNP; SP16 peptide core sequence including the LRP1 binding site; listed as Homo sapiens) [SP8, reference compound]”?
A: NFκB activity (NFκB inducible SEAP in supernatant) (NFκB [1]): neither the scrambled core control peptide nor the AAT 0-36 fragment decreased the NFκB activity; NFkB induction by the peptide alone (NFκB [7]): showed NFkB inducible properties without the need for LPS

Q: “FPKMVPQFNTELKIFPEVNIK (FPKMVPQFNTELKIFPEVNIK) [SP34, reference compound]” was tested. Which “NFκB activity” value (NFκB [1]) did it give?
A: neither the scrambled core control peptide nor the AAT 0-36 fragment decreased the NFκB activity
